Active and inactive are the calls of the source. The rule behind the calls is not given here.
Tested on: CCRIS mutagenicity, Ames/micronucleus/aberration tests
Experiment: CCRIS mutagenicity studies
[1] = Test System: AMES SALMONELLA TYPHIMURIUM, Strain/Indicator: TA98, Metabolic Activation: NONE, Method: STANDARD PLATE
[2] = Test System: AMES SALMONELLA TYPHIMURIUM, Strain/Indicator: TA100, Metabolic Activation: NONE, Method: STANDARD PLATE
[3] = Test System: AMES SALMONELLA TYPHIMURIUM, Strain/Indicator: TA1535, Metabolic Activation: NONE, Method: STANDARD PLATE
[4] = Test System: AMES SALMONELLA TYPHIMURIUM, Strain/Indicator: TA1537, Metabolic Activation: NONE, Method: STANDARD PLATE

With `C[Si](C)(Cl)Cl` the mutagenic call (Test System: AMES SALMONELLA TYPHIMURIUM, Strain/Indicator: TA98, Metabolic Activation: HAMSTER, LIVER, S-9, AROCLOR 1254, Method: PREINCUBATION) was “inactive; negative”, the mutagenic call (Test System: AMES SALMONELLA TYPHIMURIUM, Strain/Indicator: TA98, Metabolic Activation: NONE, Method: PREINCUBATION) was “inactive; negative” and the mutagenic call [1] was “inactive; negative”. The mutagenic call (Test System: AMES SALMONELLA TYPHIMURIUM, Strain/Indicator: TA98, Metabolic Activation: RAT LIVER S-9, AROCLOR 1254, Method: STANDARD PLATE) was “inactive; negative”, the mutagenic call (Test System: AMES SALMONELLA TYPHIMURIUM, Strain/Indicator: TA98, Metabolic Activation: RAT, LIVER, S-9, AROCLOR 1254, Method: PREINCUBATION) was “inactive; negative” and the mutagenic call (Test System: AMES SALMONELLA TYPHIMURIUM, Strain/Indicator: TA100, Metabolic Activation: HAMSTER, LIVER, S-9, AROCLOR 1254, Method: PREINCUBATION) was “inactive; negative”. For the same molecule, the mutagenic call (Test System: AMES SALMONELLA TYPHIMURIUM, Strain/Indicator: TA100, Metabolic Activation: NONE, Method: PREINCUBATION) was “inactive; negative”, the mutagenic call [2] was “inactive; negative” and the mutagenic call (Test System: AMES SALMONELLA TYPHIMURIUM, Strain/Indicator: TA100, Metabolic Activation: RAT LIVER S-9, AROCLOR 1254, Method: STANDARD PLATE) was “inactive; negative”. The mutagenic call (Test System: AMES SALMONELLA TYPHIMURIUM, Strain/Indicator: TA100, Metabolic Activation: RAT, LIVER, S-9, AROCLOR 1254, Method: PREINCUBATION) was “inactive; negative”, the mutagenic call (Test System: AMES SALMONELLA TYPHIMURIUM, Strain/Indicator: TA1535, Metabolic Activation: HAMSTER, LIVER, S-9, AROCLOR 1254, Method: PREINCUBATION) was “inactive; negative” and the mutagenic call (Test System: AMES SALMONELLA TYPHIMURIUM, Strain/Indicator: TA1535, Metabolic Activation: NONE, Method: PREINCUBATION) was “inactive; negative”. For the same molecule, the mutagenic call [3] was “inactive; negative”, the mutagenic call (Test System: AMES SALMONELLA TYPHIMURIUM, Strain/Indicator: TA1535, Metabolic Activation: RAT LIVER S-9, AROCLOR 1254, Method: STANDARD PLATE) was “inactive; negative” and the mutagenic call (Test System: AMES SALMONELLA TYPHIMURIUM, Strain/Indicator: TA1535, Metabolic Activation: RAT, LIVER, S-9, AROCLOR 1254, Method: PREINCUBATION) was “inactive; negative”. The mutagenic call (Test System: AMES SALMONELLA TYPHIMURIUM, Strain/Indicator: TA1537, Metabolic Activation: HAMSTER, LIVER, S-9, AROCLOR 1254, Method: PREINCUBATION) was “inactive; negative”, the mutagenic call (Test System: AMES SALMONELLA TYPHIMURIUM, Strain/Indicator: TA1537, Metabolic Activation: NONE, Method: PREINCUBATION) was “inactive; negative” and the mutagenic call [4] was “inactive; negative”. The mutagenic call (Test System: AMES SALMONELLA TYPHIMURIUM, Strain/Indicator: TA1537, Metabolic Activation: RAT LIVER S-9, AROCLOR 1254, Method: STANDARD PLATE) was “inactive; negative”, the mutagenic call (Test System: AMES SALMONELLA TYPHIMURIUM, Strain/Indicator: TA1537, Metabolic Activation: RAT, LIVER, S-9, AROCLOR 1254, Method: PREINCUBATION) was “inactive; negative” and the mutagenic call (Test System: AMES SALMONELLA TYPHIMURIUM, Strain/Indicator: TA1538, Metabolic Activation: HAMSTER, LIVER, S-9, AROCLOR 1254, Method: PREINCUBATION) was “inactive; negative”. The mutagenic call (Test System: AMES SALMONELLA TYPHIMURIUM, Strain/Indicator: TA1538, Metabolic Activation: NONE, Method: PREINCUBATION) was “inactive; negative”, the mutagenic call (Test System: AMES SALMONELLA TYPHIMURIUM, Strain/Indicator: TA1538, Metabolic Activation: NONE, Method: STANDARD PLATE) was “inactive; negative” and the mutagenic call (Test System: AMES SALMONELLA TYPHIMURIUM, Strain/Indicator: TA1538, Metabolic Activation: RAT LIVER S-9, AROCLOR 1254, Method: STANDARD PLATE) was “inactive; negative”. For the same molecule, the mutagenic call (Test System: AMES SALMONELLA TYPHIMURIUM, Strain/Indicator: TA1538, Metabolic Activation: RAT, LIVER, S-9, AROCLOR 1254, Method: PREINCUBATION) was “inactive; negative”, the mutagenic call (Test System: E. COLI, Strain/Indicator: P3078(POL A-), Metabolic Activation: NONE, Method: SPOT TEST) was “inactive; negative” and the mutagenic call (Test System: E. COLI, Strain/Indicator: P3078 POLA, Metabolic Activation: RAT LIVER S-9, AROCLOR 1254, Method: SPOT TEST) was “inactive; negative”. The mutagenic call (Test System: E. COLI, Strain/Indicator: W3110, Metabolic Activation: NONE, Method: SPOT TEST) was “inactive; negative”, the mutagenic call (Test System: E. COLI, Strain/Indicator: W3110, Metabolic Activation: RAT LIVER S-9, AROCLOR 1254, Method: SPOT TEST) was “inactive; negative” and the mutagenic call (Test System: MOUSE LYMPHOMA, Strain/Indicator: L5178Y (TK+/TK-), Metabolic Activation: RAT, LIVER, S-9, AROCLOR 1254, Method: SUSPENSION/PLATE) was “inactive; negative. reevaluation of results: inconclusive”. For the same molecule, the mutagenic call (Test System: MOUSE LYMPHOMA, Strain/Indicator: L5178Y (TK+/TK-), Metabolic Activation: RAT, LIVER, S-9, Method: SUSPENSION/PLATE) was “inactive; negative”.

`Nc1cnc2c(c1)nc1ccccn12` was tested, and the mutagenic call [1] was “inactive; negative”, the mutagenic call (Test System: AMES SALMONELLA TYPHIMURIUM, Strain/Indicator: TA98, Metabolic Activation: RAT, LIVER, CYTOSOL, AROCLOR 1254, Method: STANDARD PLATE) was “inactive; negative” and the mutagenic call (Test System: AMES SALMONELLA TYPHIMURIUM, Strain/Indicator: TA98, Metabolic Activation: RAT, LIVER, MICROSOMES, AROCLOR 1254, Method: STANDARD PLATE) was “inactive; negative”. The mutagenic call (Test System: AMES SALMONELLA TYPHIMURIUM, Strain/Indicator: TA98, Metabolic Activation: RAT, LIVER, S-9, AROCLOR 1254, Method: STANDARD PLATE) was “active; positive”.

In the case of `NN1C(=O)c2ccccc2C1=O`, the mutagenic call (Test System: AMES SALMONELLA TYPHIMURIUM, Strain/Indicator: TA97A, Metabolic Activation: NONE, Method: STANDARD PLATE) is reported as “inactive; negative”, the mutagenic call (Test System: AMES SALMONELLA TYPHIMURIUM, Strain/Indicator: TA97A, Metabolic Activation: RAT, LIVER, S-9, AROCLOR 1254, Method: STANDARD PLATE) is reported as “inactive; negative” and the mutagenic call [2] is reported as “inactive; negative”. For the same molecule, the mutagenic call (Test System: AMES SALMONELLA TYPHIMURIUM, Strain/Indicator: TA100, Metabolic Activation: RAT, LIVER, S-9, AROCLOR 1254, Method: STANDARD PLATE) was “inactive; negative”, the mutagenic call (Test System: AMES SALMONELLA TYPHIMURIUM, Strain/Indicator: TA102, Metabolic Activation: NONE, Method: STANDARD PLATE) was “inactive; negative” and the mutagenic call (Test System: AMES SALMONELLA TYPHIMURIUM, Strain/Indicator: TA102, Metabolic Activation: RAT, LIVER, S-9, AROCLOR 1254, Method: STANDARD PLATE) was “inactive; negative”. For the same molecule, the mutagenic call (Test System: AMES SALMONELLA TYPHIMURIUM, Strain/Indicator: TA104, Metabolic Activation: NONE, Method: STANDARD PLATE) was “inactive; negative” and the mutagenic call (Test System: AMES SALMONELLA TYPHIMURIUM, Strain/Indicator: TA104, Metabolic Activation: RAT, LIVER, S-9, AROCLOR 1254, Method: STANDARD PLATE) was “inactive; negative”.

With `CCC1(CC(=O)O)OCCc2c1[nH]c1c(C)cccc21` (stereo not drawn) the mutagenic call [1] was “inactive; negative”, the mutagenic call (Test System: AMES SALMONELLA TYPHIMURIUM, Strain/Indicator: TA98, Metabolic Activation: RAT, LIVER, S-9, Method: STANDARD PLATE) was “inactive; negative” and the mutagenic call [2] was “inactive; negative”. For the same molecule, the mutagenic call (Test System: AMES SALMONELLA TYPHIMURIUM, Strain/Indicator: TA100, Metabolic Activation: RAT, LIVER, S-9, Method: STANDARD PLATE) was “inactive; negative”, the mutagenic call [3] was “inactive; negative” and the mutagenic call (Test System: AMES SALMONELLA TYPHIMURIUM, Strain/Indicator: TA1535, Metabolic Activation: RAT, LIVER, S-9, Method: STANDARD PLATE) was “inactive; negative”. The mutagenic call [4] was “inactive; negative”, the mutagenic call (Test System: AMES SALMONELLA TYPHIMURIUM, Strain/Indicator: TA1537, Metabolic Activation: RAT, LIVER, S-9, Method: STANDARD PLATE) was “inactive; negative” and the mutagenic call (Test System: E. COLI, Strain/Indicator: WP2 UVRA, Metabolic Activation: NONE, Method: STANDARD PLATE) was “inactive; negative”. The mutagenic call (Test System: E. COLI, Strain/Indicator: WP2 UVRA, Metabolic Activation: RAT, LIVER, S-9, Method: STANDARD PLATE) was “inactive; negative”.

Reference: PubChem BioAssay AID1259407 (Chemical Carcinogenesis Research Information System (CCRIS), 2018)
